Results reported in ChEMBL document CHEMBL4765407, “Design, synthesis and high antitumor potential of new unsymmetrical bisacridine derivatives towards human solid tumors, specifically pancreatic cancers and their unique ability to stabilize DNA G-quadruplexes” (Eur J Med Chem, 2020).

Experiments:
[1] = Stabilization of ds 5'-FAM-d(TATAGCTATA-HEG-TATAGCTATA)-TAMRA-3' (unknown origin) assessed as change in melting temperature at 10 microM measured after 15 mins by FRET assay; details: Homo sapiens
HCT-116 [2] = assay: Cytotoxicity against human HCT-116 cells assessed as reduction in cell viability measured after 72 hrs by SRB assay; assay type: functional, cell-based; details: HCT-116, 72 h
PANC-1 [3] = assay: Cytotoxicity against human PANC-1 cells assessed as reduction in cell viability measured after 72 hrs by SRB assay; assay type: functional, cell-based; details: PANC-1, 72 h
Quadruplex DNA [4] = assay: Stabilization of 5'-FAM/3'-TAMRA labeled K-Ras G4 quadruplex DNA (unknown origin) assessed as change in melting temperature at 10 microM measured after 15 mins by FRET assay; assay type: nucleic-acid assay
NCI-H460 [5] = assay: Cytotoxicity against human NCI-H460 cells assessed as reduction in cell viability measured after 72 hrs by SRB assay; assay type: functional, cell-based; details: NCI-H460, 72 h
Quadruplex DNA [6] = assay: Stabilization of 5'-FAM/3'-TAMRA labeled telomeric G4 quadruplex DNA F21T (unknown origin) assessed as change in melting temperature at 10 microM measured after 15 mins by FRET assay; assay type: nucleic-acid assay
Quadruplex DNA [7] = assay: Stabilization of 5'-FAM/3'-TAMRA labeled c-Myc promoter G4 quadruplex DNA FPu18 (unknown origin) assessed as change in melting temperature at 10 microM measured after 15 mins by FRET assay; assay type: nucleic-acid assay
HT-29 = assay: Cytotoxicity against human HT-29 cells assessed as reduction in cell viability measured after 72 hrs by SRB assay; assay type: functional, cell-based; details: HT-29, 72 h
DU-145 = assay: Cytotoxicity against human DU-145 cells assessed as reduction in cell viability measured after 72 hrs by SRB assay; assay type: functional, cell-based; details: DU-145, 72 h
W256 [8] = assay: Antitumour activity against Walker 256 adenocarcinoma cells implanted in Wistar rat assessed as increase in animal survival rate by measuring T/C ratio at 5 mg/kg, ip qd for 3 days administered on day 3,4,5 after tumor cell transplantation; assay type: functional; details: time 3 day
UMUC3 = assay: Cytotoxicity against human UMUC3 cells assessed as reduction in cell viability measured after 72 hrs by SRB assay; assay type: functional, cell-based; details: UMUC3, 72 h
HCT-116 [9] = assay: Antitumour activity against human HCT-116 cells xenografted in Crl:Nu-Foxnl nu mouse assessed as inhibition of tumour growth at total effective dose of 100 mg/kg, ip measured on day 23; assay type: functional; details: HCT-116, ip, 552 h, time 23 day, read-out: TGI
PANC-1 [10] = assay: Antitumour activity against human PANC-1 cells xenografted in Crl:Nu-Foxnl nu mouse assessed as inhibition of tumour growth at total effective dose of 10 mg/kg, iv measured on day 37; assay type: functional; details: PANC-1, iv, 888 h, time 37 day, read-out: TGI
PC-3 [11] = assay: Cytotoxicity against human PC-3 cells assessed as reduction in cell viability measured after 72 hrs by SRB assay; assay type: functional, cell-based; details: PC-3, 72 h
PC-3 [12] = assay: Antitumour activity against human PC-3 cells xenografted in Crl:Nu-Foxnl nu mouse assessed as inhibition of tumour growth at total effective dose of 8 mg/kg, iv measured on day 39; assay type: functional; details: PC-3, iv, 936 h, time 39 day, read-out: TGI
NCI-H460 [13] = assay: Antitumour activity against human NCI-H460 cells xenografted in Crl:Nu-Foxnl nu mouse assessed as inhibition of tumour growth at total effective dose of 60 mg/kg, iv measured on day 17; assay type: functional; details: 408 h, time 17 day, read-out: TGI
PANC-1 [14] = assay: Antitumour activity against human PANC-1 cells xenografted in Crl:Nu-Foxnl nu mouse assessed as inhibition of tumour growth at total effective dose of 30 mg/kg, iv measured on day 45; assay type: functional; details: PANC-1, iv, 1080 h, time 45 day, read-out: TGI
W256 [15] = assay: Antitumour activity against Walker 256 adenocarcinoma cells implanted in Wistar rat assessed as increase in animal survival rate by measuring T/C ratio at 20 mg/kg, ip qd for 3 days administered on day 3,4,5 after tumor cell transplantation; assay type: functional; details: time 3 day
MIA PaCa-2 = assay: Cytotoxicity against human MIA PaCa-2 cells assessed as reduction in cell viability measured after 72 hrs by SRB assay; assay type: functional, cell-based; details: MIA PaCa-2, 72 h
NCI-H460 [16] = assay: Antitumour activity against human NCI-H460 cells xenografted in Crl:Nu-Foxnl nu mouse assessed as inhibition of tumour growth at total effective dose of 60 mg/kg, ip measured on day 14; assay type: functional; details: 336 h, time 14 day, read-out: TGI
LNCaP = assay: Cytotoxicity against human LNCaP cells assessed as reduction in cell viability measured after 72 hrs by SRB assay; assay type: functional, cell-based
MDA-MB-231 [17] = assay: Antitumour activity against human MDA-MB-231 cells xenografted in Crl:Nu-Foxnl nu mouse assessed as inhibition of tumour growth at total effective dose of 40 mg/kg, iv measured on day 39; assay type: functional; details: MDA-MB-231, iv, 936 h, time 39 day, read-out: TGI
MCF7 = assay: Cytotoxicity against human MCF7 cells assessed as reduction in cell viability measured after 72 hrs by SRB assay; assay type: functional, cell-based; details: MCF7, 72 h
MDA-MB-231 [18] = assay: Cytotoxicity against human MDA-MB-231 cells assessed as reduction in cell viability measured after 72 hrs by SRB assay; assay type: functional, cell-based; details: MDA-MB-231, 72 h
BXPC-3 = assay: Cytotoxicity against human BXPC-3 cells assessed as reduction in cell viability measured after 72 hrs by SRB assay; assay type: functional, cell-based; details: BXPC-3, 72 h
ASPC1 = assay: Cytotoxicity against human ASPC1 cells assessed as reduction in cell viability measured after 72 hrs by SRB assay; assay type: functional, cell-based; details: ASPC1, 72 h
HCT-116 [19] = assay: Antitumour activity against human HCT-116 cells xenografted in Crl:Nu-Foxnl nu mouse assessed as inhibition of tumour growth at total effective dose of 120 mg/kg, iv measured on day 15; assay type: functional; details: HCT-116, iv, 360 h, time 15 day, read-out: TGI
Capan-2 = assay: Cytotoxicity against human Capan-2 cells assessed as reduction in cell viability measured after 72 hrs by SRB assay; assay type: functional, cell-based; details: Capan-2, 72 h
PANC-1 [20] = assay: Antitumour activity against human PANC-1 cells xenografted in Crl:Nu-Foxnl nu mouse assessed as inhibition of tumour growth at total effective dose of 160 mg/kg, iv measured on day 26; assay type: functional; details: PANC-1, iv, 624 h, time 26 day, read-out: TGI

| Compound | ΔTm [1] [°C] | IC50 (HCT-116 [2]) [nM] | IC50 (PANC-1 [3]) [nM] | ΔTm (Quadruplex DNA [4]) [°C] | IC50 (NCI-H460 [5]) [nM] | ΔTm (Quadruplex DNA [6]) [°C] | ΔTm (Quadruplex DNA [7]) [°C] | IC50 (HT-29) [nM] | IC50 (DU-145) [nM] | T/C (W256 [8]) [%] | IC50 (UMUC3) [nM] | IC50 (PC-3 [11]) [nM] | IC50 (MIA PaCa-2) [nM] | further results |
| --- | --- | --- | --- | --- | --- | --- | --- | --- | --- | --- | --- | --- | --- | --- |
| Cc1ccc([N+](=O)[O-])c2c(NCCCN(C)CCCNc3ccc([N+](=O)[O-])c4[nH]c5ccccc5c(=O)c34)c3ccccc3nc12 | 2.4 | 74 | 110 | 28.5 | 55 | 6.8 | 18.8 | 230 | 44 | 1000 | 54 | – | – | inhibition in vivo at 100 mg/kg (HCT-116 [9]): 52% |
| Cc1ccc([N+](=O)[O-])c2c(NCCCN3CCN(CCCNc4ccc([N+](=O)[O-])c5[nH]c6ccccc6c(=O)c45)CC3)c3ccccc3nc12 | 2.6 | 83 | 130 | 21.6 | 40 | 8.7 | 19.4 | – | 41 | – | 63 | 362 | 108 | inhibition in vivo at 10 mg/kg (PANC-1 [10]): 27%; inhibition in vivo at 8 mg/kg (PC-3 [12]): 30%; inhibition in vivo at 60 mg/kg (NCI-H460 [13]): 24%; inhibition in vivo at 30 mg/kg (PANC-1 [14]): 72%; T/C (W256 [15]): 550% |
| Cc1ccc([N+](=O)[O-])c2c(NCCCNCCCNc3ccc(C)c4[nH]c5ccccc5c(=O)c34)c3ccccc3nc12 | – | 85 | 162 | – | 67 | – | – | 1300 | 129 | 1300 | 105 | – | – | inhibition in vivo at 60 mg/kg (NCI-H460 [16]): 25%; IC50 (LNCaP): 213 nM |
| Cc1ccc([N+](=O)[O-])c2c(NCCCN3CCN(CCCNc4ccc5ncn6c7ccc(O)cc7c(=O)c4c56)CC3)c3ccccc3nc12 | 4.4 | 51 | 42 | 18.8 | 74 | 16.4 | 21.3 | 237 | 67 | – | 35 | 130 | 38 | inhibition in vivo at 40 mg/kg (MDA-MB-231 [17]): 12%; IC50 (MCF7): 244 nM; IC50 (MDA-MB-231 [18]): 17 nM; IC50 (BXPC-3): 354 nM; IC50 (ASPC1): 343 nM; inhibition in vivo at 120 mg/kg (HCT-116 [19]): 4%; IC50 (Capan-2): 68 nM; inhibition in vivo at 160 mg/kg (PANC-1 [20]): 61% |
